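Interpolation was linear, between the two tested concentrations surrounding the appropriate level; five concentrations were tested over 48 hours in 96-well plates. GI50 = concentration required for 50% inhibition of growth.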 Calls of active or inactive are those of the source. No stated cut-off is given here; in the data, active = GI50 up to about 1.1 µM and inactive = higher.
Experiments:
Experiment in all cases: NCI tumour cell line growth inhibition, 48 h
NCI-H460 = test system: NCI-H460
HCC 2998 = test system: HCC 2998
NCI/ADR-RES = test system: NCI/ADR-RES
PC-3 = test system: PC-3
SK-MEL-2 = test system: SK-MEL-2
HCT-116 = test system: HCT-116
NCI-H23 = test system: NCI-H23
SW-620 = test system: SW-620
BT-549 = test system: BT-549
U-251 = test system: U-251
MDA-MB-435 = test system: MDA-MB-435
CCRF-CEM = test system: CCRF-CEM
IGROV-1 = test system: IGROV-1
MOLT-4 = test system: MOLT-4
OVCAR-4 = test system: OVCAR-4
A549 = test system: A549
SNB-75 = test system: SNB-75
OVCAR-8 = test system: OVCAR-8
HL-60 = test system: HL-60

Measured: GI50

CC(=O)ON(C(C)=O)c1ccc(-c2nc3ccccc3s2)cc1C
inactive: NCI-H460 21.3 µM | HCC 2998 67.6 µM | NCI/ADR-RES 21.3 µM | PC-3 30.5 µM | SK-MEL-2 > 100 µM | HCT-116 23.4 µM | NCI-H23 52.7 µM | SW-620 38.3 µM | BT-549 70.5 µM | U-251 10.4 µM | MDA-MB-435 60.3 µM | CCRF-CEM 23.7 µM | IGROV-1 13 µM | MOLT-4 66.7 µM | OVCAR-4 51.4 µM | A549 28.7 µM | SNB-75 74.1 µM | OVCAR-8 52.1 µM

c1cncc(CNCc2cccnc2)c1
inactive: NCI-H460 > 100 µM | NCI/ADR-RES > 100 µM | PC-3 > 100 µM | SK-MEL-2 > 100 µM | HL-60 3.6 µM | HCT-116 > 100 µM | NCI-H23 > 100 µM | SW-620 > 100 µM | BT-549 > 100 µM | U-251 > 100 µM | MDA-MB-435 > 100 µM | CCRF-CEM 49.2 µM | IGROV-1 > 100 µM | MOLT-4 > 100 µM | OVCAR-4 > 100 µM | A549 > 100 µM | SNB-75 > 100 µM | OVCAR-8 > 100 µM

O=C1c2ccccc2C(O)(O)C1(O)C1(O)C(=O)c2ccccc2C1(O)O (stereo not drawn)
inactive: NCI-H460 18.8 µM | NCI/ADR-RES 69.7 µM | PC-3 > 100 µM | SK-MEL-2 > 100 µM | HL-60 18.9 µM | HCT-116 23.6 µM | NCI-H23 20.8 µM | SW-620 35.3 µM | BT-549 55.6 µM | U-251 37.2 µM | MDA-MB-435 16.6 µM | CCRF-CEM 16.9 µM | IGROV-1 41.7 µM | OVCAR-4 45.5 µM | A549 30.1 µM | SNB-75 15.6 µM | OVCAR-8 35.9 µM

O=C(O)c1cc(O)nc(SCc2ccccc2)n1
inactive: NCI-H460 > 100 µM | NCI/ADR-RES > 100 µM | PC-3 > 100 µM | SK-MEL-2 > 100 µM | HL-60 > 100 µM | HCT-116 > 100 µM | NCI-H23 > 100 µM | SW-620 > 100 µM | BT-549 > 100 µM | U-251 > 100 µM | MDA-MB-435 > 100 µM | IGROV-1 > 100 µM | MOLT-4 > 100 µM | OVCAR-4 > 100 µM | A549 > 100 µM | SNB-75 > 100 µM | OVCAR-8 > 100 µM

CCOC(=O)C1CCC(=O)N1C(=O)c1ccccc1 (stereo not drawn)
inactive: NCI-H460 > 100 µM | HCC 2998 > 100 µM | NCI/ADR-RES > 100 µM | PC-3 > 100 µM | HL-60 > 100 µM | HCT-116 > 100 µM | NCI-H23 > 100 µM | SW-620 > 100 µM | BT-549 > 100 µM | U-251 > 100 µM | MDA-MB-435 > 100 µM | CCRF-CEM > 100 µM | IGROV-1 > 100 µM | MOLT-4 > 100 µM | A549 > 100 µM | OVCAR-8 > 100 µM

CC1=CC(C)(C)Nc2ccc(CSc3ccccc3)cc21
inactive: NCI-H460 24.9 µM | HCC 2998 17.2 µM | NCI/ADR-RES 41.9 µM | PC-3 28.9 µM | SK-MEL-2 23.4 µM | HCT-116 26.4 µM | NCI-H23 32.6 µM | SW-620 23 µM | BT-549 59.2 µM | U-251 31.8 µM | MDA-MB-435 25.3 µM | IGROV-1 52.1 µM | OVCAR-4 21.1 µM | A549 21.1 µM | SNB-75 24.7 µM | OVCAR-8 46.2 µM

O=C1CCC2(c3ccccc3)Nc3ccncc3N12 (stereo not drawn)
inactive: NCI-H460 > 10 µM | NCI/ADR-RES > 10 µM | PC-3 > 10 µM | SK-MEL-2 > 10 µM | HL-60 > 10 µM | HCT-116 > 10 µM | NCI-H23 > 10 µM | SW-620 > 10 µM | BT-549 > 10 µM | U-251 > 10 µM | MDA-MB-435 > 10 µM | CCRF-CEM > 10 µM | MOLT-4 > 10 µM | OVCAR-4 > 10 µM | A549 > 10 µM | SNB-75 > 10 µM | OVCAR-8 > 10 µM

C/C(=N/NC(=O)c1ccncc1)c1ccc(NC(=O)C(=O)Nn2c(S)nc3ccccc3c2=O)cc1
inactive: NCI-H460 > 100 µM | HCC 2998 > 100 µM | NCI/ADR-RES > 100 µM | PC-3 > 100 µM | SK-MEL-2 > 100 µM | HCT-116 > 100 µM | NCI-H23 > 100 µM | SW-620 > 100 µM | BT-549 > 100 µM | U-251 > 100 µM | MDA-MB-435 > 100 µM | CCRF-CEM > 100 µM | IGROV-1 37.2 µM | MOLT-4 > 100 µM | OVCAR-4 > 100 µM | A549 > 100 µM | SNB-75 > 100 µM | OVCAR-8 > 100 µM

O=C1CC(c2ccccc2)[S+]([O-])c2ccccc2N1 (stereo not drawn)
inactive: NCI-H460 > 100 µM | NCI/ADR-RES > 100 µM | PC-3 > 100 µM | HL-60 > 100 µM | HCT-116 > 100 µM | NCI-H23 > 100 µM | BT-549 > 100 µM | U-251 > 100 µM | MDA-MB-435 > 100 µM | CCRF-CEM > 100 µM | IGROV-1 > 100 µM | MOLT-4 > 100 µM | OVCAR-4 > 100 µM | A549 > 100 µM | SNB-75 > 100 µM | OVCAR-8 61.7 µM

O=C(/C=C/c1ccc(OCc2ccccc2)cc1)NCc1ccc(C(=O)NCCc2ccccc2)cc1
inactive: NCI-H460 > 100 µM | HCC 2998 > 100 µM | NCI/ADR-RES > 100 µM | PC-3 > 100 µM | SK-MEL-2 > 100 µM | HCT-116 > 100 µM | NCI-H23 > 100 µM | SW-620 > 100 µM | BT-549 > 100 µM | U-251 > 100 µM | MDA-MB-435 > 100 µM | CCRF-CEM 11.4 µM | IGROV-1 > 100 µM | OVCAR-4 > 100 µM | A549 > 100 µM | SNB-75 > 100 µM | OVCAR-8 > 100 µM

O=C(Nc1ccc(N2C(=O)CSC2c2cccs2)cc1)c1ccc(N2C(=O)CSC2c2cccs2)cc1 (stereo not drawn)
inactive: NCI-H460 > 100 µM | HCC 2998 > 100 µM | NCI/ADR-RES > 100 µM | PC-3 > 100 µM | SK-MEL-2 > 100 µM | HCT-116 > 100 µM | NCI-H23 24.8 µM | SW-620 > 100 µM | BT-549 > 100 µM | U-251 86.5 µM | MDA-MB-435 83.4 µM | CCRF-CEM 44.2 µM | IGROV-1 > 100 µM | MOLT-4 39.5 µM | OVCAR-4 > 100 µM | A549 37.2 µM | SNB-75 > 100 µM | OVCAR-8 > 100 µM

CCc1nn(CN2CCN(C)CC2)c(=S)n1/N=C\c1ccc(-c2ccc([N+](=O)[O-])cc2)o1
inactive: NCI-H460 57.4 µM | HCC 2998 48.5 µM | NCI/ADR-RES 25.9 µM | PC-3 54.3 µM | SK-MEL-2 74.3 µM | HL-60 > 100 µM | HCT-116 58.5 µM | NCI-H23 34.9 µM | BT-549 37 µM | U-251 43.6 µM | MDA-MB-435 66.1 µM | CCRF-CEM 22.5 µM | IGROV-1 89.9 µM | MOLT-4 34.7 µM | OVCAR-4 44 µM | A549 36.2 µM | OVCAR-8 35.5 µM

Cc1nc(-n2[nH]c(C)c(CCO)c2=O)[nH]c(=O)c1CCO
inactive: NCI-H460 > 100 µM | HCC 2998 > 100 µM | NCI/ADR-RES > 100 µM | PC-3 > 100 µM | HL-60 > 100 µM | HCT-116 > 100 µM | NCI-H23 > 100 µM | SW-620 > 100 µM | BT-549 > 100 µM | U-251 > 100 µM | MDA-MB-435 > 100 µM | CCRF-CEM > 100 µM | IGROV-1 > 100 µM | MOLT-4 > 100 µM | OVCAR-4 > 100 µM | A549 > 100 µM | SNB-75 > 100 µM | OVCAR-8 > 100 µM

Clc1nc(-c2ccccc2)nc(Cl)c1Cl
inactive: NCI-H460 18.7 µM | HCC 2998 7.71 µM | NCI/ADR-RES 22.5 µM | PC-3 11.8 µM | HL-60 13.2 µM | HCT-116 5.6 µM | NCI-H23 14.7 µM | SW-620 4.98 µM | BT-549 20.6 µM | U-251 8.28 µM | MDA-MB-435 12.9 µM | CCRF-CEM 2.54 µM | IGROV-1 8.69 µM | MOLT-4 3.1 µM | OVCAR-4 16 µM | A549 15.4 µM | SNB-75 15.7 µM | OVCAR-8 14.6 µM

O=c1[nH]c(=O)n(C2CC(O)C(CO)O2)cc1OC/C=C/Cc1ccccc1 (stereo not drawn)
inactive: NCI-H460 > 100 µM | NCI/ADR-RES > 100 µM | PC-3 > 100 µM | HL-60 > 100 µM | HCT-116 > 100 µM | NCI-H23 > 100 µM | BT-549 > 100 µM | U-251 > 100 µM | MDA-MB-435 > 100 µM | CCRF-CEM > 100 µM | IGROV-1 > 100 µM | MOLT-4 > 100 µM | OVCAR-4 > 100 µM | A549 > 100 µM | SNB-75 > 100 µM | OVCAR-8 > 100 µM

COc1cc(C2=NNC(=O)c3ccccc3N2c2nc(-c3cccs3)nc3ccc(Br)cc23)cc(OC)c1OC
inactive: NCI-H460 2.91 µM | NCI/ADR-RES 4.91 µM | PC-3 10.3 µM | SK-MEL-2 31.2 µM | HCT-116 12.4 µM | NCI-H23 7.11 µM | SW-620 18.4 µM | BT-549 32.8 µM | U-251 6.1 µM | MDA-MB-435 6.82 µM | CCRF-CEM 1.45 µM | IGROV-1 10.8 µM | OVCAR-4 4.55 µM | A549 18.6 µM | SNB-75 55 µM | OVCAR-8 4.62 µM
